# Active and inactive are the calls of the source. No cut-off for these calls is given here.
# Tests used:
# [1] = Permeability of the compound at pH 7.4 by PAMPA; format: physicochemical; conditions: read-out: permeability
# [2] = Lipophilicity, log D of the compound at pH 7.4 by potentiometric titration method; format: physicochemical; conditions: buffer
# [3] = molecular target: T1, Nuclear factor erythroid 2-related factor 2 (Homo sapiens) (UniProt Q16236); experiment: Activation of Nrf2 in human HepG2-ARE-C8 cells assessed as upregulation of ARE level at 0.02 uM after 12 hrs by luciferase reporter gene assay relative to control; format: cell-based
# T1 sequence (whole entry): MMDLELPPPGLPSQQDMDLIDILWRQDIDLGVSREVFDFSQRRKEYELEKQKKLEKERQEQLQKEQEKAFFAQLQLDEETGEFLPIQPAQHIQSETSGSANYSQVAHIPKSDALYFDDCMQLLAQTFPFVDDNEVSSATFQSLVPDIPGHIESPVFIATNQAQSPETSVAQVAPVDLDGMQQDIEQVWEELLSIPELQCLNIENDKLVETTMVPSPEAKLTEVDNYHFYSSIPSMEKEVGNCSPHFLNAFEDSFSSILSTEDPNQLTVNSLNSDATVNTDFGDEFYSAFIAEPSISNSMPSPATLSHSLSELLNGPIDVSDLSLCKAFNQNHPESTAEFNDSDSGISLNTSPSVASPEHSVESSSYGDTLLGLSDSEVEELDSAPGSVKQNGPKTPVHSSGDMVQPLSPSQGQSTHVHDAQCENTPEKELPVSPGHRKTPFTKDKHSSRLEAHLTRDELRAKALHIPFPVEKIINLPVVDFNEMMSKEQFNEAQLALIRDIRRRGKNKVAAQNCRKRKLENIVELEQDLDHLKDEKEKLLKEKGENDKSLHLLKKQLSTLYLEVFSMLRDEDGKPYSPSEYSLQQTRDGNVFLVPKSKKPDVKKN
# [4] = system: HCT-116; experiment: Cytotoxicity against human HCT116 cells assessed as reduction of cell proliferation at 80 uM after 24 hrs by MTT assay; format: cell-based; conditions: hct-116, 24 h
# [5] = molecular target: T1, Nuclear factor erythroid 2-related factor 2 (Homo sapiens); experiment: Activation of Nrf2 in human HepG2-ARE-C8 cells assessed as upregulation of ARE level at 40 uM after 12 hrs by luciferase reporter gene assay relative to control; format: cell-based
# [6] = molecular target: T1, Nuclear factor erythroid 2-related factor 2 (Homo sapiens); experiment: Activation of Nrf2 in human HepG2-ARE-C8 cells assessed as upregulation of ARE level at 80 uM after 12 hrs by luciferase reporter gene assay relative to control; format: cell-based
# [7] = molecular target: T1, Nuclear factor erythroid 2-related factor 2 (Homo sapiens); experiment: Activation of Nrf2 in human HepG2-ARE-C8 cells assessed as upregulation of ARE level at 0.2 uM after 12 hrs by luciferase reporter gene assay relative to control; format: cell-based
# [8] = molecular target: T1, Nuclear factor erythroid 2-related factor 2 (Homo sapiens); experiment: Activation of Nrf2 in human HepG2-ARE-C8 cells assessed as upregulation of ARE level at 2 uM after 12 hrs by luciferase reporter gene assay relative to control; format: cell-based
# [9] = molecular target: T1, Nuclear factor erythroid 2-related factor 2 (Homo sapiens); experiment: Activation of Nrf2 in human HepG2-ARE-C8 cells assessed as upregulation of ARE level at 20 uM after 12 hrs by luciferase reporter gene assay relative to control; format: cell-based
# [10] = molecular target: T1, Nuclear factor erythroid 2-related factor 2 (Homo sapiens); experiment: Activation of Nrf2 in human HepG2-ARE-C8 cells assessed as upregulation of ARE level at 160 uM after 12 hrs by luciferase reporter gene assay relative to control; format: cell-based
# [11] = Dissociation constant, pKa of the compound by potentiometric titration method; format: physicochemical
# [12] = Intrinsic aqueous solubility of the compound by potentiometric titration method; format: physicochemical; conditions: read-out: Intrinsic_solubility
# [13] = system: HCT-116; experiment: Cytotoxicity against human HCT116 cells assessed as effect on cell proliferation at 5 to 80 uM after 24 hrs by MTT assay; format: cell-based; conditions: hct-116, 24 h
# [14] = Chemical stability assessed as compound degradation after 2 weeks; format: physicochemical; conditions: 336 h
# [15] = molecular target: T1, Nuclear factor erythroid 2-related factor 2 (Homo sapiens); experiment: Activation of Nrf2 in human HepG2-ARE-C8 cells assessed as upregulation of ARE level at 50 uM after 12 hrs by luciferase reporter gene assay relative to control; format: cell-based
# [16] = molecular target: T1, Nuclear factor erythroid 2-related factor 2 (Homo sapiens); experiment: Activation of Nrf2 in human HCT116 cells assessed as upregulation of HO-1 gene expression at 40 uM measured at 4 hrs by qRT-PCR analysis relative to control; format: cell-based; conditions: HCT-116
# [17] = molecular target: T1, Nuclear factor erythroid 2-related factor 2 (Homo sapiens); experiment: Activation of Nrf2 in human HCT116 cells assessed as upregulation of GCLM gene expression measured at 4 hrs by qRT-PCR analysis; format: cell-based; conditions: HCT-116
# [18] = molecular target: T1, Nuclear factor erythroid 2-related factor 2 (Homo sapiens); experiment: Activation of Nrf2 in human HCT116 cells after 6 hrs by Western blot analysis; format: cell-based; conditions: HCT-116
# [19] = molecular target: T1, Nuclear factor erythroid 2-related factor 2 (Homo sapiens); experiment: Activation of Nrf2 in human HCT116 cells at 40 uM measured at 4 hrs by qRT-PCR analysis relative to control; format: cell-based; conditions: HCT-116
# [20] = molecular target: T1, Nuclear factor erythroid 2-related factor 2 (Homo sapiens); experiment: Activation of Nrf2 in human HCT116 cells assessed as upregulation of NQO1 gene expression at 40 uM measured at 4 hrs by qRT-PCR analysis relative to control; format: cell-based; conditions: HCT-116
# [21] = molecular target: T1, Nuclear factor erythroid 2-related factor 2 (Homo sapiens); experiment: Activation of Nrf2 in human HCT116 cells measured at 4 hrs by qRT-PCR analysis; format: cell-based; conditions: HCT-116
# [22] = molecular target: T1, Nuclear factor erythroid 2-related factor 2 (Homo sapiens); experiment: Activation of Nrf2 in human HCT116 cells assessed as upregulation of GCLM gene expression at 40 uM measured at 4 hrs by qRT-PCR analysis relative to control; format: cell-based; conditions: HCT-116
# [23] = molecular target: T1, Nuclear factor erythroid 2-related factor 2 (Homo sapiens); experiment: Activation of Nrf2 in human HCT116 cells assessed as upregulation of GCLM gene expression at 10 uM measured at 6 hrs by qRT-PCR analysis relative to control; format: cell-based; conditions: HCT-116
# [24] = molecular target: T1, Nuclear factor erythroid 2-related factor 2 (Homo sapiens); experiment: Activation of Nrf2 in human HCT116 cells at 10 uM by qRT-PCR analysis; format: cell-based; conditions: HCT-116, TDE = time-dependent effect
# [25] = molecular target: T1, Nuclear factor erythroid 2-related factor 2 (Homo sapiens); experiment: Activation of Nrf2 in human HCT116 cells assessed as upregulation of NQO1 expression after 6 hrs by Western blot analysis; format: cell-based; conditions: HCT-116
# [26] = molecular target: T1, Nuclear factor erythroid 2-related factor 2 (Homo sapiens); experiment: Activation of Nrf2 in human HCT116 cells assessed as upregulation of HO-1 gene expression at 10 uM measured at 6 hrs by qRT-PCR analysis relative to control; format: cell-based; conditions: HCT-116
# [27] = molecular target: T1, Nuclear factor erythroid 2-related factor 2 (Homo sapiens); experiment: Activation of Nrf2 in human HCT116 cells assessed as upregulation of HO-1 gene expression measured at 4 hrs by qRT-PCR analysis; format: cell-based; conditions: HCT-116
# [28] = molecular target: T1, Nuclear factor erythroid 2-related factor 2 (Homo sapiens); experiment: Activation of Nrf2 in human HCT116 cells assessed as upregulation of NQO1 gene expression at 10 uM measured over 1 to 24 hrs by qRT-PCR analysis relative to control; format: cell-based; conditions: HCT-116
# [29] = molecular target: T1, Nuclear factor erythroid 2-related factor 2 (Homo sapiens); experiment: Activation of Nrf2 in human HCT116 cells assessed as upregulation of HO-1 expression at 10 uM measured at 4 hrs by Western blot analysis; format: cell-based; conditions: HCT-116
# [30] = molecular target: T1, Nuclear factor erythroid 2-related factor 2 (Homo sapiens); experiment: Activation of Nrf2 in human HCT116 cells at 10 uM measured at 4 hrs by qRT-PCR analysis relative to control; format: cell-based; conditions: HCT-116
# [31] = molecular target: T1, Nuclear factor erythroid 2-related factor 2 (Homo sapiens); experiment: Activation of Nrf2 in human HCT116 cells at 10 uM after 2 hrs by Western blot analysis; format: cell-based; conditions: HCT-116
SMILES,Papp [1] [×10⁻⁶ cm/s],fold change (FC) [3],Activity [4],fold change (FC) [5],fold change (FC) [6],fold change (FC) [7],fold change (FC) [8],fold change (FC) [9],fold change (FC) [10],further results
CC(C(=O)O)c1cccc(C(=O)c2ccccc2)c1 (stereo not drawn) [KETOPROFEN],1.93,,,,,,,,,
c1ccc(-c2nc(-c3ccc4nc[nH]c4c3)no2)cc1,5.26,1.49,Non-toxic,23.7,3.19,4.72,14.2,21.4,4.46,logD [2]: 3.66; pKa [11]: 3.69; solubility [12]: 12.3 µM
FC(F)(F)c1ccccc1-c1nc(-c2ccc3nc[nH]c3c2)no1,4.78,1.23,Non-toxic,24.2,17.9,2.28,9.01,19.1,3.73,logD [2]: 4.01; pKa [11]: 4; solubility [12]: 14 µM
Cn1nnc2ccc(-c3noc(-c4ccc(F)cc4)n3)cc21,,1.46,,5.96,5.48,1.83,3.17,3.88,8.36,Activity [13]: Non-toxic
O=[N+]([O-])c1ccc(-c2nc(-c3ccc4nc[nH]c4c3)no2)cc1,,1.64,Non-toxic,36.7,30.6,2.02,6.59,15.6,38.3,Stability [14]: Unstable
c1ccc2cc(-c3nc(-c4ccc5nc[nH]c5c4)no3)ccc2c1,8.64,1.42,Non-toxic,7.57,13.4,1.23,3.47,6.72,16.2,logD [2]: 5.56; pKa [11]: 4.22; solubility [12]: 2.5 µM
Cc1nc2cc(-c3noc(-c4ccccc4Br)n3)ccc2o1,,1.18,,4.05,5.88,1.22,1.47,3.31,6,fold change (FC) [15]: 5.47
Cn1cnc2ccc(-c3noc(-c4ccc5cc[nH]c5c4)n3)cc21,,1.09,,12.4,12.1,1.5,3.35,7.61,8.73,fold change (FC) [16]: 7; Activity [17]: Dose-dependent effect; Activity [18]: Dose-dependent effect; fold change (FC) [19]: 3.4; fold change (FC) [20]: 2; Activity [13]: Non-toxic; Activity [21]: Dose-dependent effect; fold change (FC) [22]: 3.8; fold change (FC) [23]: 2.5; Activity [24]: tde; Activity [25]: Dose-dependent effect; fold change (FC) [26]: 2.4; Activity [27]: Dose-dependent effect; fold change (FC) [28]: 1.5; Activity [29]: Active; fold change (FC) [30]: 5; Activity [31]: Active
O=[N+]([O-])c1ccccc1-c1nc(-c2ccc3nc[nH]c3c2)no1,,1.73,Non-toxic,53.6,42.6,3.76,12.1,36.6,38.4,Stability [14]: Unstable
Cn1nnc2cc(-c3noc(-c4ccccc4)n3)ccc21,,1.18,,7.34,7.67,1.12,4.48,5.65,11.7,Activity [13]: Non-toxic
Cc1cccc(-c2nc(-c3ccc4nc[nH]c4c3)no2)c1,,1.44,Non-toxic,10.4,17.3,1.94,4.84,14.2,8.99,
CC(C)NCC(O)COc1cccc2ccccc12 (stereo not drawn) [PROPRANOLOL],117,,,,,,,,,
Brc1ccc(-c2nc(-c3ccc4nc[nH]c4c3)no2)cc1,11.2,1.31,Non-toxic,3.44,2.75,2.36,12.7,13.4,2.49,logD [2]: 3.54; pKa [11]: 3.25; solubility [12]: 35.4 µM
FC(F)(F)c1ccc(-c2nc(-c3ccc4nc[nH]c4c3)no2)cc1,,1.35,Non-toxic,21.6,6.56,2.85,6.91,17.7,1.13,
COc1ccc(OC)c(-c2nc(-c3ccc4nc[nH]c4c3)no2)c1,,1.7,Non-toxic,4.24,3.7,2.96,3.21,4.48,5.2,
CCCCc1ccc(-c2nc(-c3ccc4nc[nH]c4c3)no2)cc1,,1.55,Non-toxic,37.6,14.8,2.08,10.9,30.8,12,
COc1cccc(-c2nc(-c3ccc4nc[nH]c4c3)no2)c1,,1.79,Non-toxic,14.4,12.4,1.95,3.16,12.4,8.38,
Clc1ccc(-c2nc(-c3ccc4nc[nH]c4c3)no2)cc1,10.3,2.03,Non-toxic,18.5,14.1,2.79,7.25,15.5,14.2,logD [2]: 3.71; pKa [11]: 3.77; solubility [12]: 49.5 µM
